How the values were obtained:
[1] = Pharmacokinetic evaluation in mice (2), plasma; type: in vivo, Balb/c male mice
Excerpt: (§1) IV: intravenous injection; PO: oral; C0: instantaneous […] concentration after intravenous injection; Cmax: highest plasma concentration after administration; Tmax: time required to reach peak of drug concentration after administration; T1/2: time required for the plasma drug concentration to decrease by half, Vdss: apparent volume of distribution, refers to the proportional constant of the drug dose in vivo and the blood drug concentration when the drug reaches a dynamic equilibrium in vivo. Cl: clearance rate, refers to the […] cleared from the body per unit time; Tlast: time at the last detection point; AUC0-last: area under the drug-time curve, refers to the area covered by the plasma concentration curve and the time axis; F: a measure of the speed and degree of drug absorption into the blood circulation, which is an important indicator for evaluating the degree of drug absorption.
Test compounds were mixed with […]/50% polyethylene glycol 200/40% water, vortexed and sonicated to prepare a nearly clear solution of 0.4 mg/mL (compound 5), then filtered through a microporous membrane for next step. Balb/c male mice of 18 to 20 grams were selected and administered intravenously with the candidate compound solution at a dose of 2 mg/kg. Test compounds were mixed with 10% dimethyl sulfoxide/50% polyethylene glycol 200/40% water, vortexed and sonicated to prepare a nearly clear solution of 1 mg/mL, then filtered with a microporous membrane for next step. Balb/c male mice of 18 to 20 grams were selected and orally administered with the candidate compound solution at a dose of 10 mg/kg. Whole blood was collected for a certain period of time, and plasma was prepared, then drug concentration was detected by LC-MS/MS method, and pharmacokinetic parameters were calculated by Phoenix WinNonlin software (Pharsight, USA).

[2] = Pharmacokinetic evaluation in cynomolgus monkeys; type: in vivo, Male cynomolgus monkeys
Excerpt: as §1
Test compound was mixed with 10% dimethyl sulfoxide/50% polyethylene glycol 200/40% water, vortexed and sonicated to prepare a nearly clear solution of 1 mg/mL, then filtered through a microporous membrane for next step. Male cynomolgus monkeys were selected and administered intravenously with the candidate compound solution at a dose of 1 mg/kg. Test compound was mixed with 10% dimethyl sulfoxide/50% polyethylene glycol 200/40% water, vortexed and sonicated to prepare a nearly clear solution of 1 mg/mL, then filtered with a microporous membrane for next step. Male cynomolgus monkeys were selected and orally administered with the candidate compound solution at a dose of 5 mg/kg. Whole blood was collected for a certain period of time, and plasma was prepared, then drug concentration was detected by LC-MS/MS method, and pharmacokinetic parameters were calculated by Phoenix WinNonlin software (Pharsight, USA).

[3] = male, Balb/c, 2 mg/kg, mouse plasma, IV 2 mpk
[4] = male, Balb/c, 10 mg/kg, mouse plasma, PO 10 mpk
[5] = male, 1 mg/kg, cynomolgus monkey plasma, IV 1 mpk
[6] = male, 5 mg/kg, cynomolgus monkey plasma, PO 5 mpk

AUC(0-t) [1, 3]: 3.45 µM·h | C0 [1, 3]: 4.74 µM | clearance [1, 3]: 23.7 mL/min/kg | half-life [1, 3]: 0.733 h | Vd ([1]; male, Balb/c, 2 mg/kg, mouse plasma, IV 2 mpk, read-out: Vdss): 1.07 L/kg | AUC(0-t) [1, 4]: 23.2 µM·h | Cmax [1, 4]: 11.4 µM | Tmax [1, 4]: 0.5 h | half-life [1, 4]: 0.85 h | Tlast ([1]; mouse plasma, IV 2 mpk): 8 h | Tlast ([1]; mouse plasma, PO 10 mpk): 10 h | F ([1]; mouse, PO 10 mpk vs IV 2 mpk): 134% | Tlast ([2]; cynomolgus monkey plasma, PO 5 mpk): 12 h | F ([2]; cynomolgus monkey, PO 5 mpk vs IV 1 mpk): 115% | AUC(0-t) [2, 5]: 2.44 µM·h | C0 [2, 5]: 2.29 µM | clearance [2, 5]: 16.8 mL/min/kg | half-life [2, 5]: 3.6 h | Vd ([2]; male, 1 mg/kg, cynomolgus monkey plasma, IV 1 mpk, read-out: Vdss): 1.52 L/kg | AUC(0-t) [2, 6]: 14 µM·h | Cmax [2, 6]: 4.5 µM | Tmax [2, 6]: 1.17 h | half-life [2, 6]: 1.35 h
Compound: Cc1cc2ncnn2cc1Nc1ncc2c(n1)n(N1CC3CCC(C1)O3)c(=O)n2C [Compound 5]

From patent US20230026616A1, “PYRIMIDOIMIDAZOLE COMPOUNDS USED AS DNA-PK INHIBITORS” (MEDSHINE DISCOVERY INC., priority 2019, published 2023)
